Results from US5223169A, “Hydrolase surfactant systems and their use in laundering” (priority 1991, dated 1993).

Legend:
Assay in all cases: pH-stat assay of triglyceride emulsion hydrolysis; critical oil-to-surfactant ratio
[1] = system: enzyme from P. putida ATCC 53552 (lipase GC-1065); format: biochemical, Pseudomonas putida; conditions: for Enzyme Activity (initial rate of hydrolysis): enzyme 2 ppm; for Specific Activity determined from initial rates, GC-1065, High / Critical Ratio, GC-1065, High / Critical Ratio, GC-1065, Low / Specific Activity determined from initial rates, GC-1065, Low: trioctanoin emulsions; for Specific Activity determined from initial rates, GC-1065, High: high surfactant conc. as E41; for Critical Ratio, GC-1065, High / Critical Ratio, GC-1065, Low: lipase ~2 ppm; for Critical Ratio, GC-1065, High: high surfactant conc.: SDS 10 mM, Neodol 25-3S 10 mM, Surfonic JL-80X 5 mM, Triton X-100 10 mM, C16 DAPS 10 mM; for Critical Ratio, GC-1065, Low: low surfactant conc.: SDS 2 mM, Triton X-100 2 mM, C16 DAPS 0.5 mM; for Specific Activity determined from initial rates, GC-1065, Low: low surfactant conc. as E40
Text: (§1) To determine the critical ratio for any specific enzyme-surfactant combination, aliquots of an aqueous solution, each containing a determined (constant) amount of the enzyme which is effective in the absence of any surfactant to hydrolyze the triglycerides in an oily stain on a determined (constant) amount of a fabric soiled by a determined (constant) amount of a triglyceride oil, are mixed with a determined (constant) amount of a surfactant which is within the range of the amounts conventionally present in home laundry solutions, e.g., from about 0.2 to 1.5. mM, and which is effective to inhibit the hydrolyzing activity of the enzyme. To the aliquots are added a hydrolysis activator, e.g., trioctanoin, in increasing amounts and the hydrolyzing activity of the enzyme in the various solutions is determined.
(§2) The experiments determining enzyme activity, such as those set out in Tables IA and IB, were carried out as follows:
(§3) The desired amount of triglyceride was weighed into an appropriate size beaker, on a Mettler balance (model number AE163). The corresponding amount of surfactant was added to the triglyceride, from a previously prepared aqueous surfactant stock solution, and the triglyceride and surfactant mixed manually. The sample was then adjusted to the desired weight using doubly distilled H2 O. Emulsification of the sample was carried out, prior to assaying enzyme activity, with a probe sonicator (Braun-Sonic model 2000), on ice, for approx. 2 minutes.
(§4) (ii) Enzyme Activity Measurement:
(§5) This was achieved by monitoring the rate of acid liberation, from the enzymatic hydrolysis of the triglycerides in the emulsion. The assay was initiated by adding approx. 2 ppm lipase to 10 ml of the prepared emulsion. The acid liberated was monitored by autotitration, on a Radiometer pH-stat (model number ABU80) to an endpoint of a pH of 10. Initial rates were recorded for the first 5 minutes of the reaction, and the reaction rates reported as μmole H^+ titrated . min ^-1 mgE^-1. Occasionally enzyme activity is reported as % total oil hydrolyzed in 14 min. In these examples, the reaction was allowed to run for 14 min. and the amount of acid titrated recorded. The % total oil (triglyceride) hydrolyzed was then calculated by dividing the recorded value with the theoretically calculated value assuming three equivalents of oleic acid was produced for each triglyceride equivalent. All assays were run at ambient temperatures.

Enzyme Amano P = target: T1, Enzyme Amano P (Burkholderia cepacia, UniProt P22088); format: biochemical, P. fluorescens
T1 construct: purchased Amano Co
T1 sequence (P22088 45-364): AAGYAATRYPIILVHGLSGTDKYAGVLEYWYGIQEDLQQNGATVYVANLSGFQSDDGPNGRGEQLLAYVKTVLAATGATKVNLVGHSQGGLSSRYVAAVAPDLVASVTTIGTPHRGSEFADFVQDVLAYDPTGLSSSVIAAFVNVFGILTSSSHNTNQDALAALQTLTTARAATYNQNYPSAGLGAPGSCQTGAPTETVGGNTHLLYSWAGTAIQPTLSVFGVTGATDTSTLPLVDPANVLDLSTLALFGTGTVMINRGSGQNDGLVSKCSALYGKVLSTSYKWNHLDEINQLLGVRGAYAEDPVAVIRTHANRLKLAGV
Text: as §1, §2, §3, §4, §5

Enzyme Amano 68S = format: biochemical, P. sp.; conditions: for Critical Ratio / Enzyme Activity: surfactant conc.: SDS 1 mM
Text: as §1, §2, §3, §4, §5

[2] = C12 LAS 1 mM, Neodol 25-9 0.5 mM, Neodol 25-3S 2 mM, Surfonic JL-80X 0.5 mM
[3] = Table II, trioctanoin, surfactant conc.: SDS 2 mM, C12 LAS 1 mM, Neodol 25-3S 2 mM, Neodol 25-9 0.5 mM, Surfonic JL80X 0.5 mM, Triton X100 2 mM
[4] = Table Summary, second block of lines (corresponds to triolein Tables VI-IX)
[5] = Table VI, triolein, surfactant conc.: SDS 1 mM, C12 LAS 0.5 mM, Neodol 25-3S 1 mM, Neodol 25-9 0.5 mM, Surfonic JL80X 0.5 mM
[6] = triolein emulsions, high conc.: SDS 10 mM, C12 LAS 5 mM, Neodol 25-9 5 mM, Neodol 25-3S 5 mM, Surfonic JL-80X 2.5 mM
[7] = Table IV, trioctanoin, C12 LAS 0.2 mM, Neodol 25-3S 0.5 mM, Neodol 25-9 0.5 mM, Surfonic JL80X 0.5 mM
[8] = Table VIII, triolein, C12 LAS 0.5 mM, Neodol 25-3S 0.5 mM, Neodol 25-9 0.5 mM, Surfonic JL80X 2.5 mM
[9] = Table III, trioctanoin, surfactant conc.: SDS 2 mM, C12 LAS 1 mM, Neodol 25-3S 2 mM, Neodol 25-9 0.5 mM, Surfonic JL80X 0.5 mM
[10] = Table VII, triolein, surfactant conc.: SDS 1 mM, others 0.5 mM

Compound: CCCCCCCCCCCCCCCC[N+](C)(C)CCCS(=O)(=O)[O-] [C16 DAPS]
- Enzyme Activity (initial rate of hydrolysis) ([1]; trioctanoin 0.5 mM, surfactant 0.5 mM, system ratio 1): 0 μmole H^+ released min^-1 mgE^
- Enzyme Activity (initial rate of hydrolysis) ([1]; trioctanoin 2.5 mM, surfactant 0.5 mM, system ratio 5): 0 μmole H^+ released min^-1 mgE^
- Enzyme Activity (initial rate of hydrolysis) ([1]; trioctanoin 5 mM, surfactant 0.5 mM, system ratio 10): 0 μmole H^+ released min^-1 mgE^
- Enzyme Activity (initial rate of hydrolysis) ([1]; trioctanoin 10 mM, surfactant 0.5 mM, system ratio 20): 334 μmole H^+ released min^-1 mgE^
- Enzyme Activity (initial rate of hydrolysis) ([1]; trioctanoin 10 mM, surfactant 10 mM, system ratio 1): 0 μmole H^+ released min^-1 mgE^
- Enzyme Activity (initial rate of hydrolysis) ([1]; trioctanoin 15 mM, surfactant 0.5 mM, system ratio 30): 405 μmole H^+ released min^-1 mgE^
- Enzyme Activity (initial rate of hydrolysis) ([1]; trioctanoin 20 mM, surfactant 0.5 mM, system ratio 40): 370 μmole H^+ released min^-1 mgE^
- Enzyme Activity (initial rate of hydrolysis) ([1]; trioctanoin 50 mM, surfactant 10 mM, system ratio 5): 0 μmole H^+ released min^-1 mgE^
- Enzyme Activity (initial rate of hydrolysis) ([1]; trioctanoin 200 mM, surfactant 10 mM, system ratio 20): 398 μmole H^+ released min^-1 mgE^
- Enzyme Activity (initial rate of hydrolysis) ([1]; trioctanoin 300 mM, surfactant 10 mM, system ratio 30): 370 μmole H^+ released min^-1 mgE^
- Enzyme Activity (initial rate of hydrolysis) ([1]; trioctanoin 400 mM, surfactant 10 mM, system ratio 40): 417 μmole H^+ released min^-1 mgE^
- critical ratio (system ratio of oil to surfactant at which enzymatic activity begins) ([1]; trioctanoin as oil, surfactant 0.5 and 10 mM (Table IA)): 10-20
- Specific Activity determined from initial rates, GC-1065, High [1]: 450 μeq acid/min.mg
- Critical Ratio, GC-1065, High ([1]; C12 LAS 5 mM, Neodol 25-9 5 mM): 10-20
- Critical Ratio, GC-1065, Low [1, 2]: 10-20
- Specific Activity determined from initial rates, GC-1065, Low [1]: 450 μeq acid/min.mg

Compound: CCCCCCCCCCCCCCCC [Hexadecane, hexadecane]
- Enzyme Activity ([1]; triolein 0.3 mM + hexadecane 1.2 mM, Surfonic JL-80X 0.3 mM, system ratio 5): 8 μmole H^+ released min^-1 mgE^
- Enzyme Activity ([1]; triolein 0.3 mM + hexadecane 1.2 mM, Surfonic JL-80X 0.3 mM, system ratio 5, listed as hexadecane): active
- Enzyme Activity (Enzyme Amano P; trioctanoin 5 mm + hexadecane 10 mm, Neodol 25-3S 0.5, system ratio 40): 45 μmole H^+ released min^-1 mgE^

Compound: CCCCCCCCCCCC(=O)N(CC)CC [N,N-diethyldodecanamide]
- Enzyme Activity ([1]; no trioctanoin, N,N-diethyldodecanamide 10.0 mm, Neodol 25-9 0.5 mm): < 5 μeq of fatty acid produced in 14 minutes
- Enzyme Activity ([1]; trioctanoin 2.5 mm, N,N-diethyldodecanamide 2.5 mm, Neodol 25-9 0.5 mm): 5 μeq of fatty acid produced in 14 minutes
- Enzyme Activity ([1]; trioctanoin 2.5 mm, N,N-diethyldodecanamide 5.0 mm, Neodol 25-9 0.5 mm): 12 μeq of fatty acid produced in 14 minutes
- Enzyme Activity ([1]; trioctanoin 2.5 mm, N,N-diethyldodecanamide 7.5 mm, Neodol 25-9 0.5 mm): 19 μeq of fatty acid produced in 14 minutes

Compound: CCCCCCCC/C=C\CCCCCCCC(=O)[O-].[Na+] [Na Oleate, sodium oleate]
- Enzyme Activity ([1]; triolein substrate, surfactant 0.3 mM, system ratio 1): 0 μmole H^+ titrated . min ^-1 m
- Enzyme Activity ([1]; triolein substrate, surfactant 0.3 mM, system ratio 5): 0 μmole H^+ titrated . min ^-1 m
- Enzyme Activity ([1]; triolein substrate, surfactant 0.3 mM, system ratio 10): 0 μmole H^+ titrated . min ^-1 m
- Enzyme Activity ([1]; triolein substrate, surfactant 0.3 mM, system ratio 20): 60 μmole H^+ titrated . min ^-1 m
- Enzyme Activity ([1]; triolein substrate, surfactant 0.3 mM, system ratio 30): 90 μmole H^+ titrated . min ^-1 m

Compound: CCCCCCCCCCCCOS(=O)(=O)[O-].[Na+] [SDS, sodium dodecylsulfate]
- Critical Ratio [1, 3]: 0.5-5.0
- Enzyme Activity [1, 3]: 325 μmole H^+ released min^-1 mgE^
- critical ratio class, enzyme From ATCC 53552 [1, 4]: 0 (means a critical ratio of 1.0-10)
- Critical Ratio [1, 5]: 5-10
- Enzyme Activity [1, 5]: 60 μmole H^+ released min^-1 mgE^
- Specific Activity determined from initial rates, GC-1065, High [1]: 450 μeq acid/min.mg
- Critical Ratio, GC-1065, High ([1]; C12 LAS 5 mM, Neodol 25-9 5 mM): 1-3
- Critical Ratio, GC-1065, Low [1, 2]: 0.5-5.0
- Specific Activity determined from initial rates, GC-1065, Low [1]: 325 μeq acid/min.mg
- Activity (specific hydrolysis activity from initial rates), GC-1065, High ([1]; triolein emulsions, high conc. as E55): 50 μeq acid/min./mg
- R, critical (minimum activating molar) ratio, GC-1065, High [1, 6]: 1-5
- Activity (specific hydrolysis activity from initial rates), GC-1065, Low ([1]; triolein emulsions, low conc. as E54): 60 μeq acid/min./mg
- R, critical (minimum activating molar) ratio, GC-1065, Low ([1]; triolein emulsions, low conc.: SDS 1 mM, C12 LAS 0.5 mM, Neodol 25-9 0.5 mM, Neodol 25-3S 1 mM, Surfonic JL-80X 0.5 mM): 5-10
- Critical Ratio (Enzyme Amano 68S; [7]): 0.1-0.5
- Enzyme Activity (Enzyme Amano 68S; [7]): 400 μmole H^+ released min^-1 mgE^
- critical ratio class, Amano 68S (Enzyme Amano 68S; [4]): 0 (means a critical ratio of 1.0-10)
- Critical Ratio (Enzyme Amano 68S; [8]): 1-5
- Enzyme Activity (Enzyme Amano 68S; [8]): 200 μmole H^+ released min^-1 mgE^
- Specific Activity determined from initial rates, AMANO 68S, High (Enzyme Amano 68S; trioctanoin emulsions, high surfactant conc. as E45): 1200 μeq acid/min.mg
- Critical Ratio, AMANO 68S, High (Enzyme Amano 68S; trioctanoin emulsions, lipase ~2 ppm, high conc.: SDS 10 mM, C12 LAS 2 mM, Neodol 25-9 5 mM, Neodol 25-3S 10 mM, Surfonic JL-80X 5 mM): 10-15
- Critical Ratio, AMANO 68S, Low (Enzyme Amano 68S; trioctanoin emulsions, lipase ~2 ppm, low conc.: SDS 1 mM, C12 LAS 0.2 mM, Neodol 25-9 0.5 mM, Neodol 25-3S 0.5 mM, Surfonic JL-80X 0.5 mM): 0.1-0.5
- Specific Activity determined from initial rates, AMANO 68S, Low (Enzyme Amano 68S; trioctanoin emulsions, low surfactant conc. as E44): 400 μeq acid/min.mg
- Activity (specific hydrolysis activity from initial rates), AMANO 68S, High (Enzyme Amano 68S; triolein emulsions, high conc. as E59): 175 μeq acid/min./mg
- R, critical (minimum activating molar) ratio, AMANO 68S, High (Enzyme Amano 68S; triolein emulsions, high conc.: SDS 10 mM, C12 LAS 5 mM, Neodol 25-9 5 mM, Neodol 25-3S 5 mM, Surfonic JL-80X 2.5 mm): 5-10
- Activity (specific hydrolysis activity from initial rates), AMANO 68S, Low (Enzyme Amano 68S; triolein emulsions, low conc. as E58): 200 μeq acid/min./mg
- R, critical (minimum activating molar) ratio, AMANO 68S, Low (Enzyme Amano 68S; triolein emulsions, low conc.: SDS 1 mM, C12 LAS 0.5 mM, Neodol 25-9 0.5 mM, Neodol 25-3S 0.5 mM, Surfonic JL-80X 2.5 mM): 1-5
- Critical Ratio (Enzyme Amano P; [9]): 1-5
- Enzyme Activity (Enzyme Amano P; [9]): 100 μmole H^+ released min^-1 mgE^
- critical ratio class, Amano P (Enzyme Amano P; [4]): 0 (means a critical ratio of 1.0-10)
- Critical Ratio (Enzyme Amano P; [10]): 5-10
- Enzyme Activity (Enzyme Amano P; [10]): 160 μmole H^+ released min^-1 mgE^
- Specific Activity determined from initial rates, AMANO P, High (Enzyme Amano P; trioctanoin emulsions, high surfactant conc. as E43): 200 μeq acid/min.mg
- Critical Ratio, AMANO P, High (Enzyme Amano P; trioctanoin emulsions, lipase ~2 ppm, high conc.: SDS 10 mM, C12 LAS 5 mM, Neodol 25-9 5 mM, Neodol 25-3S 20 mM, Surfonic JL-80X 5 mM): 5-10
- Critical Ratio, AMANO P, Low (Enzyme Amano P; trioctanoin emulsions, lipase ~2 ppm, low conc.: SDS 2 mM, C12 LAS 1 mM, Neodol 25-9 0.5 mM, Neodol 25-3S 2.0 mM, Surfonic JL-80X 0.5 mM): 1-5
- Specific Activity determined from initial rates, AMANO P, Low (Enzyme Amano P; trioctanoin emulsions, low surfactant conc. as E42): 100 μeq acid/min.mg
- Activity (specific hydrolysis activity from initial rates), AMANO P, High (Enzyme Amano P; triolein emulsions, high conc. as E57): 150 μeq acid/min./mg
- R, critical (minimum activating molar) ratio, AMANO P, High (Enzyme Amano P; [6]): 5-10
- Activity (specific hydrolysis activity from initial rates), AMANO P, Low (Enzyme Amano P; triolein emulsions, low conc. as E56): 160 μeq acid/min./mg
- R, critical (minimum activating molar) ratio, AMANO P, Low (Enzyme Amano P; triolein emulsions, low conc.: SDS 1 mM, others 0.5 mM): 5-10

Compound: Triton X-100
- Critical Ratio [1, 3]: 10-15
- Enzyme Activity [1, 3]: 450 μmole H^+ released min^-1 mgE^
- Specific Activity determined from initial rates, GC-1065, High [1]: 400 μeq acid/min.mg
- Critical Ratio, GC-1065, High ([1]; C12 LAS 5 mM, Neodol 25-9 5 mM): 15-20
- Critical Ratio, GC-1065, Low [1, 2]: 10-15
- Specific Activity determined from initial rates, GC-1065, Low [1]: 450 μeq acid/min.mg
